The record followed here is ChEMBL document CHEMBL5034019, “Discovery of the Next-Generation Pan-TRK Kinase Inhibitors for the Treatment of Cancer” (J Med Chem, 2021).

Data set [1] has as its target Macrophage-stimulating protein receptor (Homo sapiens) (UniProt Q04912). The experiment in a line: Inhibition of recombinant human Ron (983 to end residues) assessed as residual activity at 0.5 uM using GGMEDIYFEFMGGKKK as substrate incubated for 40 mins in presence of [gamma33P]ATP by scintillation counting based radiometry assay relative to control.
The target of data set [2] is NT-3 growth factor receptor (Homo sapiens, UniProt Q16288).
Description: Inhibition of TrKC (unknown origin) incubated for 120 mins in presence of 33P-ATP
Data set [3] in a line: AUC (0 to t) in male Sprague-Dawley rat at 2 mg/kg, iv measured up to 24 hrs by LC-MS/MS analysis. Details: route intravenous, dose 2 mg/kg, time <=24. Format: ADME, organism-based. The note with it: in vivo.
In data set [4] the target is Epidermal growth factor receptor (Homo sapiens) (UniProt P00533). In words: Inhibition of recombinant human EGFR (696 to end residues) assessed as residual activity at 0.5 uM using poly(Glu, Tyr) 4:1 as substrate at 40 mins in presence of [gamma-33ATP] by scintillation counting based radiometry assay relative to control.
The target in data set [5] is High affinity nerve growth factor receptor (Homo sapiens, UniProt P04629, G595R).
Data set [6] concerns Platelet-derived growth factor receptor alpha (Homo sapiens), P16234 [D842V]. The experiment in a line: Inhibition of human PDGFRalpha D842V mutant (550 to end residues) assessed as residual activity at 0.5 uM using poly(Glu, Tyr) 4:1 as substrate measured after 40 mins in presence of [gamma33P]ATP by scintillation counting based radiometry assay relative to control.
Data set [7] concerns the target Fibroblast growth factor receptor 1 (Homo sapiens) (UniProt P11362). In words: Inhibition of recombinant human FGFR1 (456 to 765 residues) assessed as residual activity at 0.5 uM using KKKSPGEYVNIEF as substrate at 40 mins in presence of [gamma-33ATP] by scintillation counting based radiometry assay relative to control.
A short description of data set [8]: Clearance in male Sprague-Dawley rat at 2 mg/kg, iv measured up to 24 hrs by LC/MS/MS analysis. The format is ADME, organism-based. The note with it: in vivo.
The target of data set [9] is Voltage-gated inwardly rectifying potassium channel KCNH2 (Homo sapiens, UniProt Q12809). The experiment in a line: Inhibition of human ERG.
The target of data set [10] is ALK tyrosine kinase receptor (Homo sapiens, UniProt Q9UM73).
Description: Inhibition of ALK (unknown origin) incubated for 120 mins in presence of 33P-ATP
The subject of data set [11] is Hepatocyte growth factor receptor (Homo sapiens), P08581 [Y1248C]. In words: Inhibition of recombinant human Met Y1248C mutant (974 to end residues) assessed as residual activity at 0.5 uM using KKKGQEEEYVFIE as substrate incubated for 40 mins in presence of [gamma-33P]-ATP by scintillation counting method relative to control.
For data set [12], the system named is Proto-oncogene tyrosine-protein kinase receptor Ret (Homo sapiens), P07949 [V804M]. The experiment in a line: Inhibition of recombinant human Ret V804M mutant (658 to end residues) assessed as residual activity at 0.5 uM using […] as substrate incubated for 40 mins in presence of [gamma33P]ATP by scintillation counting based radiometry assay relative to control.

The nature of data set [13]: Tmax in male Sprague-Dawley rat at 10 mg/kg, po measured up to 24 hrs by LC-MS analysis. Particulars: in vivo. Format: ADME, organism-based.
The target in data set [14] is Hepatocyte growth factor receptor (Homo sapiens) (UniProt P08581). The experiment in a line: Inhibition of recombinant human MET (974 to end residues) assessed as residual activity at 0.5 uM using KKKGQEEEYVFIE as substrate incubated for 40 mins in presence of [gamma-33ATP by scintillation counting based radiometry assay relative to control.
The target of data set [15] is Serine/threonine-protein kinase A-Raf (Homo sapiens) (UniProt P10398). In words: Inhibition of recombinant human A-Raf (273 to end residues) assessed as residual activity at 0.5 uM using myelin as substrate incubated for 40 mins in presence of [gamma-33P]-ATP by scintillation counting method relative to control.
Data set [16] is described as follows: AUC (0 to t) in female Sprague-Dawley rat at 10 mg/kg, po measured up to 24 hrs by LC-MS/MS analysis. Particulars: in vivo. Details: route oral, dose 10 mg/kg, time <=24. Format: ADME, organism-based.
Data set [17] in a line: Cmax in male Sprague-Dawley rat at 10 mg/kg, po measured up to 24 hrs by LC-MS/MS analysis. Format: ADME, organism-based. Particulars: in vivo. Details: route oral, dose 10 mg/kg, time <=24.
The subject of data set [18] is RAF proto-oncogene serine/threonine-protein kinase (Homo sapiens), P04049 [Y340D,Y341D]. In words: Inhibition of recombinant human C-Raf Y340D/Y341D double mutant (306 to end residues) assessed as residual activity at 0.5 uM poly(Glu, Tyr) 4:1 as substrate incubated 40 mins in presence of [gamma-33ATP] by scintillation counting based radiometry assay relative to control.

Data set [19] can be described thus: Toxicity in mouse xenografted with mouse BaF3 cells transfected with ETV6-NTRK3-G623R mutant assessed as weight loss at 20 mg/kg, po administered once daily for 21 days and measured twice weekly. The note with it: in vivo, 504 h.
For data set [20], the system named is Tyrosine-protein kinase BTK (Homo sapiens), Q06187 [R28H]. In words: Inhibition of recombinant full length human BTK R28H mutant assessed as residual activity at 0.5 uM using LSNLYHQGKFLQT as substrate incubated for 40 mins in presence of [gamma-33P]-ATP by scintillation counting method relative to control.
Data set [21] is described as follows: Toxicity in […] xenografted with mouse BaF3 cells transfected with ETV6-NTRK3 assessed as weight loss at 20 mg/kg, po administered once daily for 21 days and measured twice weekly. The note with it: in vivo, 504 h, time 21 day. The format is organism-based.
A short description of data set [22]: Toxicity in mouse xenografted with mouse BaF3 cells transfected with ETV6-NTRK3-G623R mutant assessed as unkempt appearance at 100 mg/kg, po administered once daily for 21 days and measured twice weekly. Particulars: in vivo, 504 h.
The nature of data set [23]: Toxicity in mouse xenografted with mouse BaF3 cells transfected with ETV6-NTRK3-G623R mutant assessed as weight loss at 100 mg/kg, po administered once daily for 21 days and measured twice weekly. Particulars: in vivo, 504 h.
The nature of data set [24]: Toxicity in mouse xenografted with mouse BaF3 cells transfected with ETV6-NTRK3 assessed as unkempt appearance at 100 mg/kg, po administered once daily for 21 days and measured twice weekly. Particulars: in vivo, 504 h.
Data set [25] deals with BaF3. In words: Antitumor activity against mouse BaF3 cells transfected with LMNA-NTRK1-G595R mutant xenografted in mouse assessed as tumor growth inhibition at 100 mg/kg, po administered once daily for 21 days and measured twice weekly. Particulars: time 21.0 day.
Data set [26] in a line: Toxicity in mouse xenografted with mouse BaF3 cells transfected with LMNA-NTRK1 assessed as weight loss at 100 mg/kg, po administered once daily for 21 days and measured twice weekly. Particulars: in vivo, 504 h.
The test system of data set [27] is BaF3. The experiment in a line: Antitumor activity against mouse BaF3 cells transfected with ETV6-NTRK3-G623R mutant xenografted in mouse assessed as tumor growth inhibition at 100 mg/kg, po administered once daily for 21 days and measured twice weekly. The note with it: time 21.0 day.

The source made the active and inactive calls. The rule behind the calls is not given here.

Platelet-derived growth factor receptor alpha (Homo sapiens), P16234 [D842V], sequence (P16234 whole entry D842V, the tested form may be a part): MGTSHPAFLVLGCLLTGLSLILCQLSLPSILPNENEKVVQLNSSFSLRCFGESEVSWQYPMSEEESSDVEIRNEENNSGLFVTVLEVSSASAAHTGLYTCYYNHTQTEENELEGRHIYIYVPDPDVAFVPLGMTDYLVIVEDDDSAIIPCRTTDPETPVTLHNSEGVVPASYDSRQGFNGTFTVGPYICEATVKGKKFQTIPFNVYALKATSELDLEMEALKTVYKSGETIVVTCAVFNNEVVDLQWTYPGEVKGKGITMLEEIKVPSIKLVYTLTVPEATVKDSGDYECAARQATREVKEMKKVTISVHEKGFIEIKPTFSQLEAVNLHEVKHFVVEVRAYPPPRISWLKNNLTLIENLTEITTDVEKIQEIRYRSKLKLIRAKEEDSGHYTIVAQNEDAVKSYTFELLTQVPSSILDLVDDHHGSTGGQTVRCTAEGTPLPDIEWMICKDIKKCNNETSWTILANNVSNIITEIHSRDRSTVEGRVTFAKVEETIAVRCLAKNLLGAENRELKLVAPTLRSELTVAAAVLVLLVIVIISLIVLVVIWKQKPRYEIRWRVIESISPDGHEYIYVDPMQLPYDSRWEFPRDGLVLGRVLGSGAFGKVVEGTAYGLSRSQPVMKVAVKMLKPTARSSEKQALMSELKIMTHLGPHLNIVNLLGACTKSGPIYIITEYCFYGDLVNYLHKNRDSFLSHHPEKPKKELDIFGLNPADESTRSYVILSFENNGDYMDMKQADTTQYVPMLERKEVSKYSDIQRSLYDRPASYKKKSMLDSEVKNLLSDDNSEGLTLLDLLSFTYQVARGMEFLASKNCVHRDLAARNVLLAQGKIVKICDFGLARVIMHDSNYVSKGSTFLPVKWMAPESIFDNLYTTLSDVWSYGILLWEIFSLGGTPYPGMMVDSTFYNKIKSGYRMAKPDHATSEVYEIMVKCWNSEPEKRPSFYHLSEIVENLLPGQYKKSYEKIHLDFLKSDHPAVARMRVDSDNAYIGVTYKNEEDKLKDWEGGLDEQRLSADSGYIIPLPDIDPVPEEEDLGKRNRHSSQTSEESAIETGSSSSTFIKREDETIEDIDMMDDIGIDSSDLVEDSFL
NT-3 growth factor receptor, sequence (Q16288 whole entry): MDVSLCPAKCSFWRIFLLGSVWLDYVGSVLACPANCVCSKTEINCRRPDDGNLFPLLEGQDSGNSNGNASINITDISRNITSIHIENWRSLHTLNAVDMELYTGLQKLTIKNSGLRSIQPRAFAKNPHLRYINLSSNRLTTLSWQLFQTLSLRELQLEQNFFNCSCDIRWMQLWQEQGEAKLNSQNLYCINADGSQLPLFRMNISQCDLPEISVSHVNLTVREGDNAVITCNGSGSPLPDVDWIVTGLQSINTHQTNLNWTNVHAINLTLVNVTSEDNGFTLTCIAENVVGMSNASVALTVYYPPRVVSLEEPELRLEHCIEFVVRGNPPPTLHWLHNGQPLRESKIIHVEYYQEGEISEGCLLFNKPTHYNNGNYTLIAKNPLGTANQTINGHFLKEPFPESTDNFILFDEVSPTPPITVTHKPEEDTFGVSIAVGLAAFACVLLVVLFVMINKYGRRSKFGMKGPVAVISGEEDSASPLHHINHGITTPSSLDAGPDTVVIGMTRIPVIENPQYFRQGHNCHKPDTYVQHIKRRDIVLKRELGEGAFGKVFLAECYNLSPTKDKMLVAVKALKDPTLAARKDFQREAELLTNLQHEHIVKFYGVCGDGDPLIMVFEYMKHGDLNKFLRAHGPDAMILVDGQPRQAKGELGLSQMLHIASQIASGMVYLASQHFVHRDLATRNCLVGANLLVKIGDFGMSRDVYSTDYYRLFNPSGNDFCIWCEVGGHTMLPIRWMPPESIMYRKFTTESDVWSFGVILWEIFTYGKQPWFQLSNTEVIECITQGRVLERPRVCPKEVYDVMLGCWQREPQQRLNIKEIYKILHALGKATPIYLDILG
Macrophage-stimulating protein receptor (Homo sapiens), sequence (Q04912 25-304 limits assumed): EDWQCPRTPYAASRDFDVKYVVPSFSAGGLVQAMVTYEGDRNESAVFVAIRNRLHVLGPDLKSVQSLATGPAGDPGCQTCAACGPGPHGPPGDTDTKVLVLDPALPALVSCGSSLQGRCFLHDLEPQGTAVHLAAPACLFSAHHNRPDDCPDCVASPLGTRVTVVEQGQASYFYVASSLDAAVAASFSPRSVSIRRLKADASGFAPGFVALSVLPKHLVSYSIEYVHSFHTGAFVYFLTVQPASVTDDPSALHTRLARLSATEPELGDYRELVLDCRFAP
Macrophage-stimulating protein receptor (Homo sapiens), sequence (Q04912 310-1400 limits assumed): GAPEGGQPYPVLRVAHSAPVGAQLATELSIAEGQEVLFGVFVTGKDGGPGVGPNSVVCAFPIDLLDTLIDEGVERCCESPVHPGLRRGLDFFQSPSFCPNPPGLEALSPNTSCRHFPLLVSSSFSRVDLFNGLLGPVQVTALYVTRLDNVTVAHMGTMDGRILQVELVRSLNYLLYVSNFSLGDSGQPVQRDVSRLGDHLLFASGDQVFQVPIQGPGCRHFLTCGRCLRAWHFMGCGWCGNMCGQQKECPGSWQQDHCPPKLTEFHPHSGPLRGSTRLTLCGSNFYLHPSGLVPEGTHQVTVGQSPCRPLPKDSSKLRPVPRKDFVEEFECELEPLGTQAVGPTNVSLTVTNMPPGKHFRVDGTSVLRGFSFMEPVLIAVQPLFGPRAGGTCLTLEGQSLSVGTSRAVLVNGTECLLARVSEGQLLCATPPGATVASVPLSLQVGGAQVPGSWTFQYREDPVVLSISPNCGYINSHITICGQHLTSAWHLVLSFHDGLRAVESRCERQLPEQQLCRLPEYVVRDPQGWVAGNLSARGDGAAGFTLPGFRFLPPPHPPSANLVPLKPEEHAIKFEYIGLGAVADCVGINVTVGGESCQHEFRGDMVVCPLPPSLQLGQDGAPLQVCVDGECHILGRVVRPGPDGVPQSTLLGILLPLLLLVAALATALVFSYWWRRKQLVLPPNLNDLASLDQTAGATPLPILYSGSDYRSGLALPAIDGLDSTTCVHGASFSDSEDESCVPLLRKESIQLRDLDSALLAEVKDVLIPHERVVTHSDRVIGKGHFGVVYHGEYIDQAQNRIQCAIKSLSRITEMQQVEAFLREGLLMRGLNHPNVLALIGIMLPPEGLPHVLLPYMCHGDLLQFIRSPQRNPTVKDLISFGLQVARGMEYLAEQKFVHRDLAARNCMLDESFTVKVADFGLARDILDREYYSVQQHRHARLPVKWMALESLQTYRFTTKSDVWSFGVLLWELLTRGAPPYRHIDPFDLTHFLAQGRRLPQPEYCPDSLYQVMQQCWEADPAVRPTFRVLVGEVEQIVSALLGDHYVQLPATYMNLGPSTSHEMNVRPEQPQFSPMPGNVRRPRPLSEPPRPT
Voltage-gated inwardly rectifying potassium channel KCNH2, sequence (Q12809 whole entry): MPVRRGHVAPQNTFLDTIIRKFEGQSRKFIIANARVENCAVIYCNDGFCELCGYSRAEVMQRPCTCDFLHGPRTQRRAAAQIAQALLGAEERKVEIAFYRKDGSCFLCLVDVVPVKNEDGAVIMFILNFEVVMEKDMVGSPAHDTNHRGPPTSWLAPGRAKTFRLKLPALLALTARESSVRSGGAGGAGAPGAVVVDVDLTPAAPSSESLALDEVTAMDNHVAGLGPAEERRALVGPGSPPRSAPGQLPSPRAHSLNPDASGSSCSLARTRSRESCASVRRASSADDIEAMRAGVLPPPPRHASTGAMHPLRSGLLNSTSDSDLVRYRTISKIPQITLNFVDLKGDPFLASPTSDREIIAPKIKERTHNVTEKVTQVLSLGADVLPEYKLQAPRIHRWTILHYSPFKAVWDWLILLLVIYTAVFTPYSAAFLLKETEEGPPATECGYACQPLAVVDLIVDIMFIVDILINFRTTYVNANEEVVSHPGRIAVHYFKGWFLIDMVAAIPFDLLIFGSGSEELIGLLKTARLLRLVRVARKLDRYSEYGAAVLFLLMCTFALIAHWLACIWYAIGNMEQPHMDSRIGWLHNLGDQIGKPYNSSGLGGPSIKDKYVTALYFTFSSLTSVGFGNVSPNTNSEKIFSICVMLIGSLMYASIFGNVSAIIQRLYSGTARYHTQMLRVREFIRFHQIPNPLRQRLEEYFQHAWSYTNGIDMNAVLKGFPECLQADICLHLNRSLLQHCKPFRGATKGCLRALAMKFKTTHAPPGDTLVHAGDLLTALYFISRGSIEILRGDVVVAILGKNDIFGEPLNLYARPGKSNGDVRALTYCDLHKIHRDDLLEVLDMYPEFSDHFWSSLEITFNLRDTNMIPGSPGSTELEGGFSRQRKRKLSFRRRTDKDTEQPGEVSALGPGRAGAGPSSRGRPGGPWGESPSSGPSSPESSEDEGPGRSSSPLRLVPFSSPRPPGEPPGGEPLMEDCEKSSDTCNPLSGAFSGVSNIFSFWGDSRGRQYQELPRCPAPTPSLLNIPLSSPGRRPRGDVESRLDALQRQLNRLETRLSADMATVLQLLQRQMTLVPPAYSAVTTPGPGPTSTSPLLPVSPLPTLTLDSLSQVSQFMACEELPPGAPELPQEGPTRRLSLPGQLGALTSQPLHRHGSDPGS
Serine/threonine-protein kinase A-Raf (Homo sapiens), sequence (P10398 whole entry): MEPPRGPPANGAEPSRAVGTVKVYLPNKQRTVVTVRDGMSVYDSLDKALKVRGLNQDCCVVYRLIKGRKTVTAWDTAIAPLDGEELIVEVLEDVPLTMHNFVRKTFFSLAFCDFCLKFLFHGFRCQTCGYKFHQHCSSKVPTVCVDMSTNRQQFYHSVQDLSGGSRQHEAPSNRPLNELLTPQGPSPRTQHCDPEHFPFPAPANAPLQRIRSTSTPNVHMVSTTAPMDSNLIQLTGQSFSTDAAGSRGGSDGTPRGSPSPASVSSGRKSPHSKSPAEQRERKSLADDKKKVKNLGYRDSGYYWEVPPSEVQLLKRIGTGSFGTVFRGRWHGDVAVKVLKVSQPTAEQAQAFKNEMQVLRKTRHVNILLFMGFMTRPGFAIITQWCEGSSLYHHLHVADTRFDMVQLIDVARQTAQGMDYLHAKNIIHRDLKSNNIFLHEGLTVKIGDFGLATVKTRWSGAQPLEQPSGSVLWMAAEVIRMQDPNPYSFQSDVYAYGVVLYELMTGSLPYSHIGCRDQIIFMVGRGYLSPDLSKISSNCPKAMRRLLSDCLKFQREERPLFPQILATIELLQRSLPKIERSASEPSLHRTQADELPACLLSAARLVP

As usually defined, the IC50 is the concentration that inhibits the measured activity by half. Low values mean inhibition by little substance, high ones a need for much substance. Broadly, the AUC(0-t) is the area under the concentration-time curve up to a stated or last time point. One may read the clearance as the rate of elimination divided by the concentration. A high value points to efficient removal. As a reminder, the Tmax is the time from dosing to the highest level. As a reminder, the Cmax is the peak of the concentration-time curve. As for `O=C1NC2(CC2)COc2ncc(F)cc2[C@H]2COCCN2c2ccn3ncc1c3n2`, the Activity was determined as 112% in [1]; 108% in data set [4]; 102% in [6]; 92% in [7]; 85% in [11]; 54% in data set [12]. Besides, the Activity in data set [14] was 98%; in data set [15] it was 103%; in data set [18] it was 103%; in [19], “Toxic”; in data set [20], 74%; in data set [21] it was “Toxic”. Besides, the IC50 in data set [2] came out at 0.2 nM; in data set [5], 3.5 nM; in data set [9] it was 13000 nM; in data set [10], 182 nM. Moreover, the AUC(0-t) at 24 h in data set [3] was determined as 4.19 µM·h; in data set [16] it was 31.7 µM·h. For the same compound, the clearance in data set [8] was 19.3 mL/min/kg. Further, the Tmax in data set [13] amounted to 40 min. The same compound had a Cmax in data set [17] of 6.38 µM.

As to `C[C@@H]1CCc2ncc(F)cc2[C@H]2CCCN2c2ccn3ncc(c3n2)C(=O)N1` [SELITRECTINIB], the Activity entry in [22], in data set [23], in data set [24] and in data set [26] was “Toxic” each time. Also, the result with BaF3 [25] and in the data set on BaF3 [27] was Active.
